Consider twelve molecules from patent publication US20230355557A1, “ANTIVIRAL SOX INHIBITORS” (Gertrude Biomedical Pty LTD, priority 2020, published 2023).

Holding throughout (format): cell-based
Experiment [1] addresses T1, SOX18 (Mus musculus, UniProt P43680).
T1 construct: expressed in transfected cells; host or cells: COS-7 (monkey kidney fibroblast-like cells)
T1 sequence (P43680 1-377): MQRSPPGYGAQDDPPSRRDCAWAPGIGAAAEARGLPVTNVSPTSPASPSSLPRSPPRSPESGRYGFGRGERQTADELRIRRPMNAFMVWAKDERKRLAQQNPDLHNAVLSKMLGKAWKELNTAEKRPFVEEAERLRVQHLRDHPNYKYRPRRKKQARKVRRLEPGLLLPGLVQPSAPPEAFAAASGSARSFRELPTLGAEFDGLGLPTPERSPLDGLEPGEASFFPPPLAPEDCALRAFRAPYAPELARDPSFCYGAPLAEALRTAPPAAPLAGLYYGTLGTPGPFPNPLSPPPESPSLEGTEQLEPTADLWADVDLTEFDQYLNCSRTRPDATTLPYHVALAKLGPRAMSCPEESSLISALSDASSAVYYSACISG
Put plainly: VCAM-1 luciferase reporter assay in COS-7 cells transfected with Vcam-1 promoter construct and SOX18. The settings on record: VCAM-1 promoter luciferase, 24 hr compound incubation, % of maximal signal without compound. The procedure:
Monkey kidney fibroblast-like cells (COS-7) were cultured at 37° C. and 5% CO2 in DMEM (Life Technologies, 11995) with fetal bovine serum (FBS), sodium pyruvate, L-glutamine, penicillin, streptomycin, non-essential amino acids, and HEPES. Cells were grown in 96-well plates to 80% confluence and transfected with mouse plasmids pGL2 Vcam-1 promoter construct (VC1889) and pReceiver M49 SOX18, using X-tremeGENE HP DNA transfection reagent (Roche, 6366236001). After 4 hr of transfection, cells were incubated with compounds in 0.5% FBS medium for another 24 hr, before lysis and luciferase assay (Perkin Elmer, 6016711). Results are presented as %inhibition of the maximal signal observed in cells transfected with VCAM-1 and SOX18 without compound incubation.
The second assay measured the interaction between SOX18 and the VCAM-1 promoter (Hosking et al., (2004) J Biol. Chem. 297:5314-5322). […] Without wishing to be bound by theory, it is understood that viral infection can induce an inflammatory response of endothelial cells, the latter being a result of VCAM-1 gene expression which is regulated by SOX18 activity (Huber J. (1994) J Virol. 68(6):3453-8). Put another way, the expression of VCAM-1 is driven by SOX18 so upon virus infection, SOX18 binds to the VCAM promoter and induces expression of VCAM.
The compounds described in Table 2 were tested by the VCAM-1 luciferase reporter assay. The results are shown in Table 2 under the column %inhibition of SOX18.

Experiment [2] has as its target T2, SOX18 (Homo sapiens, UniProt P35713).
T2 construct: expressed in transfected cells; host or cells: HeLa
T2 sequence (P35713 1-384): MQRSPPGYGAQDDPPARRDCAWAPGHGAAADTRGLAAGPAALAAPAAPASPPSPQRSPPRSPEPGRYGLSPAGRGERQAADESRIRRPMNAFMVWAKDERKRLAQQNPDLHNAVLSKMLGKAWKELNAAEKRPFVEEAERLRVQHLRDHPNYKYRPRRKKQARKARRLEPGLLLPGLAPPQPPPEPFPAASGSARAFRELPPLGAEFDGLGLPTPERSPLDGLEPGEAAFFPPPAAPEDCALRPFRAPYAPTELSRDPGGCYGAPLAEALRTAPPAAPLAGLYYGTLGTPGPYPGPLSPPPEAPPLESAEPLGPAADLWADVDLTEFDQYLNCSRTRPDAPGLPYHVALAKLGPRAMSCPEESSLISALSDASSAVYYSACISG
The experiment is described as follows: SOX18 luciferase reporter assay (7XTR and OriA reporters) in HeLa cells. Particulars: HeLa cells transfected with SOX18 and 7xTR or OriA reporter, 24 hours treatment (FIG. 2). The procedure: Luciferase signal was quantified and single values from n=3 technical replicates are shown. Data points represent mean + SD. P values were calculated using a 2-way and ordinary one way ANOVA followed by Dunnett’s multiple comparison test.
(§1) KSHV-infected cells were incubated with the indicated inhibitor at the concentrations stated in the Figure panels for six days prior to analysis. HeLa cells were incubated with the indicated inhibitor at the concentrations stated in the Figure panels for 24 hours prior to analysis.
HeLa cells were cultured in DMEM containing 10% FCS, 1% L-glutamine and 1% pen/strep at 37° C. & 5% CO2. Cells were seeded at a density of 7000 cells per well in 125 µL of the maintenance medium in a 96-well format for 24 hours.
Plasmids were transfected using FuGENE HD Transfection Reagent (Promega E2311) (1:4 DNA to reagent ratio) and Opti-MEM (ThermoFisher 31985062). OriA-luc negative control and experimental wells contained 25 ng OriA-luc plasmid and 10 ng SOX18 plasmid per well, positive control contained 25 ng OriA-luc plasmid and 10 ng mCherry plasmid per well. 7XTR-luc negative control and experimental wells contained 50 ng 7XTR-luc plasmid and 20 ng SOX18 plasmid per well, positive control contained 50 ng 7XTR-luc plasmid and 20 ng mCherry plasmid per well. Cell were incubated for 18 hours before cells were replenished with new medium containing experimental compounds and incubated for 24 hours.
Luminescence was measured by adding an equal volume of Steady-Glo reagent to cells at room temperature and luminescence was quantified using the FLUOstar plate reader (BMG Labtech, FLUOstar Omega; 4 sec intervals per well).
Activation of these genes was measured using HeLa cells that were transfected with luciferase-reporters harbouring either seven copies of the TR (7XTR) or the OriA promoter fused to OriLyt upstream of an SV40 promoter and a firefly luciferase reporter. ORF, that binds to the OriLyt and is a potent activator of this reporter (Chen J et al., (2009) Virology 386:290-302) was used as a positive control. […]

Experiment [3] relates to Kaposi sarcoma herpesvirus (KSHV). Put plainly: KLEC genome copy number assay in KSHV-infected primary human dermal lymphatic endothelial cells. The settings on record: KSHV-infected LECs, 6 days. The procedure: The relative expression of KSHV from control was quantified and single values from n=3 technical replicates are shown. Bars represent mean + SD. P values were calculated using a 2-way ANOVA (left) and ordinary one way-ANOVA (right) followed by Dunnett’s multiple comparison test.
as §1
Primary human dermal lymphatic (C-12216) endothelial cells (LECs) were purchased from Promocell and grown in Lonza EBM-2 (00190860) supplemented with EGMTM-2 MV Microvascular Endothelial SingleQuotsTM(CC-4147). Cell from passage 1-3 were used.
rKSHV.219 was produced from iSLK.219 cells reactivated using 0.2 µg/ml doxycycline and 1.35 mM NaB for 72 h. Supernatant was harvested, spun down (2000 rpm 5 min) and sterile filtered using […] pore-size filters. Subsequently the supernatant was ultracentrifuged at 22000 rpm for 2 h. The concentrated virus was then aliquoted and stored at -80° C.
Equal number of LECs were seeded into 6-well assay-plates and incubated at 37° C. & 5% CO2 until 80% confluency. After reaching confluency, LECs were infected with rKSHV.219 and incubated at 37° C. & 5% CO2 for 3 days, making sure that the cell density remained similar. Cell were subsequently mixed at a 2:3 ratio with uninfected LECs for 2 days. Once GFP expression and cell spindling was observed the culture medium was replaced with medium containing the experimental compounds with 0.25% DMSO (v/v) at concentrations from 0.1 uM to 50 uM. After 3 days of incubation, the cells were replenished with new medium containing experimental compounds and incubated for 3 more days.
After compound incubation, cells were collected and genomic and viral DNA was extracted using the NucleoSpin Tissue Kit (Macherey-Nagel, 740952) following the kit’s standard protocol. qPCR was subsequently completed (SYBR Green, ThermoFisher K0222) in triplicates using primers for viral K8.1 and Human genomic actin. K8.1 forward primer: […] (SEQ ID NO:1); reverse primer: […] (SEQ ID NO:2). Genomic acid forward primer: […] (SEQ ID NO:3); reverse primer: […] (SEQ ID NO:4).
A KLEC assay was used to examine the ability of the compounds to inhibit viral copy number in virus infected primary human dermal lymphatic endothelial cells (LECs).

Take `COc1ccc(CCc2cccc(OC)c2C(=O)O)cc1` [GB005, 2-methoxy-6-(4-methoxyphenethyl)benzoic acid]: the “%inhibition of Sox18” value in experiment [1] is 25.32%.

With `COC(=O)c1c(O)cccc1CCc1ccc(Cl)cc1` [GB028, methyl 2-(4-chlorophenethyl)-6-hydroxybenzoate], the “%inhibition of Sox18” value in experiment [1] was 48.31%.

For `Cc1cc(O)c(C(=O)O)c(CCc2ccc3ccccc3c2)c1` [GB012, 2-hydroxy-4-methyl-6-(2-(naphthalen-2-yl)ethyl)benzoic acid], in experiment [1], the “%inhibition of Sox18” value stood at 96.7%.

As to `COC(=O)c1c(O)cccc1/C=C/c1ccccc1` [GB026, methyl (E)-2-hydroxy-6-styrylbenzoate], the “%inhibition of Sox18” value in experiment [1] is reported as 49.66%.

`O=C(O)c1c(O)cccc1CCc1ccc2ccccc2c1` [GB001, 2-hydroxy-6-(2-(naphthalen-2-yl)ethyl)benzoic acid]: in experiment [1], the “%inhibition of Sox18” value was determined as 99.10%. Also, the “interference with SOX18-mediated gene transcription (luciferase signal)” value (“interference” for short) in experiment [2] is given as “interferes with SOX18-mediates gene transcription”. Moreover, the “reduction in KSHV genome copy number (fold change)” value (shortened to “reduction … (fold change)”) in experiment [3] (10 µM) and in experiment [3] (50 µM) was “Significant reduction in genome copy number” in each case.

On to `COc1cc(O)c(C(=O)O)c(CCc2ccc3ccccc3c2)c1` [GB025, 2-hydroxy-4-methoxy-6-(2-(naphthalen-2-yl)ethyl)benzoic acid], for which the “%inhibition of Sox18” value in experiment [1] amounted to 67.19%.

`O=C(O)c1c(O)cc(Cl)cc1CCc1ccc2ccccc2c1` [GB019, 4-chloro-2-hydroxy-6-(2-(naphthalen-2-yl)ethyl)benzoic acid]: in experiment [1], the “%inhibition of Sox18” value was found to be 54.02%.

Consider `COc1cccc(CCc2cccc3ccccc23)c1C(=O)O` [GB027, 2-methoxy-6-(2-(naphthalen-1-yl)ethyl)benzoic acid], for which the “%inhibition of Sox18” value in experiment [1] is on record as 47.43%.

As for `O=C(O)c1c(O)cccc1CCc1ccc(Cl)cc1Cl` [GB004, 2-(2,4-dichlorophenethyl)-6-hydroxybenzoic acid], in experiment [1], the “%inhibition of Sox18” value is reported as 48.26%. Further, the “interference” value in experiment [2] is on record as “interferes with SOX18-mediates gene transcription”. Moreover, in experiment [3] (5 µM), the “reduction … (fold change)” value is given as “Significant reduction in genome copy number”.

In the case of `COc1cccc(COCc2ccc3ccccc3c2)c1C(=O)O` [GB006, 2-methoxy-6-((naphthalen-2-ylmethoxy)methyl)benzoic acid], the “%inhibition of Sox18” value in experiment [1] is reported as 19.33%.

Regarding `COc1cccc(/C=C/c2ccc3ccccc3c2)c1C(=O)O` [GB002, (E)-2-methoxy-6-(2-(naphthalen-2-yl)vinyl)benzoic acid], the “%inhibition of Sox18” value in experiment [1] is recorded as 30.78%. In experiment [2], the “interference” value is reported as “interferes with SOX18-mediates gene transcription”. Further, the “reduction … (fold change)” value in experiment [3] (50 µM) is “Significant reduction in genome copy number”.

As for `O=C(O)c1c(O)cccc1CCc1ccccc1` [GB003, 2-hydroxy-6-phenethylbenzoic acid], the “%inhibition of Sox18” value in experiment [1] is reported as 49.18%.
